Entries after “also recorded” stand apart in the source; their conditions may differ. No end group written: not given here.
Test system: human insulin autoantibodies
Test: Competition with 125I-human insulin for binding to human insulin autoantibodies (competitive binding radioassay)
Settings: for affinity / recognition by human insulin autoantibodies: Type I diabetes-associated autoantibodies, relative to human insulin
Procedure: Insulin autoantibodies isolated from sera of well-characterized first-degree relatives of patients with Type I diabetes mellitus were analyzed in comparative studies by competition with a series of insulins from different species and with insulin analogues. Insulin binding activity was detected using a competitive binding radioassay and expressed in nU of insulin precipitated per ml of sera (1 nU/ml=7.18 fmole/L).

Row | competition with 125I-human insulin for binding to human insulin autoantibodies (autoantibodies isolated from sera of first-degree relatives of Type I diabetes patients) | potency in binding to insulin autoantibodies relative to human insulin | Substance | affinity / recognition by human insulin autoantibodies
1 | failed to compete | – | Guinea pig insulin: guinea pig insulin; differs from human insulin at 18 positions (Insulin B chain FVSRHLCGSNLVETLYSVCQDDGFFYIPKD; Insulin A chain GIVDQCCTGTCTRHQLQSYCN; ends and bridges not checked; cysteine pairing not given here; UniProt P01329 25-54; P01329 90-110, looked up) | essentially not recognized; also recorded: reduced
2 | – | at least as potent as human insulin | human proinsulin | –
3 | – | – | ovine insulins: ovine insulin; differs from human by three amino acids | high-affinity recognition; also recorded: minimal reduction
